# Laboratory results from article PMC10879502, “Linking ATP and allosteric sites to achieve superadditive binding with bivalent EGFR kinase inhibitors” (Communications Chemistry, 2024).
# Tests used:
# LIMK1 = target: T1, LIMK1 (Homo sapiens, UniProt P53667); experiment: KINOMEscan; type: binding; settings: 1 μM
# T1 construct: purchased Eurofins DiscoverX Corporation
# GRK4 = target: T2, GRK4 (Homo sapiens, UniProt P32298); experiment: KINOMEscan; type: binding; settings: 1 μM
# T2 construct: purchased Eurofins DiscoverX Corporation
# [1] = target: T3, ABL1(F317L)-nonphosphorylated (Homo sapiens, UniProt P00519, F317L); experiment: KINOMEscan; type: binding; settings: 1 μM
# T3 construct: purchased Eurofins DiscoverX Corporation
# EPHB1 = EPHB1 (Homo sapiens, UniProt P54762); experiment: KINOMEscan; type: binding; settings: 1 μM
# FGFR4 = FGFR4 (Homo sapiens, UniProt P22455); experiment: KINOMEscan; type: binding; settings: 1 μM
# ALK(L1196M) = ALK(L1196M) (Homo sapiens, UniProt Q9UM73, L1196M); experiment: KINOMEscan; type: binding; settings: 1 μM
# Sequence of ALK(L1196M) (Q9UM73 19-1620 L1196M): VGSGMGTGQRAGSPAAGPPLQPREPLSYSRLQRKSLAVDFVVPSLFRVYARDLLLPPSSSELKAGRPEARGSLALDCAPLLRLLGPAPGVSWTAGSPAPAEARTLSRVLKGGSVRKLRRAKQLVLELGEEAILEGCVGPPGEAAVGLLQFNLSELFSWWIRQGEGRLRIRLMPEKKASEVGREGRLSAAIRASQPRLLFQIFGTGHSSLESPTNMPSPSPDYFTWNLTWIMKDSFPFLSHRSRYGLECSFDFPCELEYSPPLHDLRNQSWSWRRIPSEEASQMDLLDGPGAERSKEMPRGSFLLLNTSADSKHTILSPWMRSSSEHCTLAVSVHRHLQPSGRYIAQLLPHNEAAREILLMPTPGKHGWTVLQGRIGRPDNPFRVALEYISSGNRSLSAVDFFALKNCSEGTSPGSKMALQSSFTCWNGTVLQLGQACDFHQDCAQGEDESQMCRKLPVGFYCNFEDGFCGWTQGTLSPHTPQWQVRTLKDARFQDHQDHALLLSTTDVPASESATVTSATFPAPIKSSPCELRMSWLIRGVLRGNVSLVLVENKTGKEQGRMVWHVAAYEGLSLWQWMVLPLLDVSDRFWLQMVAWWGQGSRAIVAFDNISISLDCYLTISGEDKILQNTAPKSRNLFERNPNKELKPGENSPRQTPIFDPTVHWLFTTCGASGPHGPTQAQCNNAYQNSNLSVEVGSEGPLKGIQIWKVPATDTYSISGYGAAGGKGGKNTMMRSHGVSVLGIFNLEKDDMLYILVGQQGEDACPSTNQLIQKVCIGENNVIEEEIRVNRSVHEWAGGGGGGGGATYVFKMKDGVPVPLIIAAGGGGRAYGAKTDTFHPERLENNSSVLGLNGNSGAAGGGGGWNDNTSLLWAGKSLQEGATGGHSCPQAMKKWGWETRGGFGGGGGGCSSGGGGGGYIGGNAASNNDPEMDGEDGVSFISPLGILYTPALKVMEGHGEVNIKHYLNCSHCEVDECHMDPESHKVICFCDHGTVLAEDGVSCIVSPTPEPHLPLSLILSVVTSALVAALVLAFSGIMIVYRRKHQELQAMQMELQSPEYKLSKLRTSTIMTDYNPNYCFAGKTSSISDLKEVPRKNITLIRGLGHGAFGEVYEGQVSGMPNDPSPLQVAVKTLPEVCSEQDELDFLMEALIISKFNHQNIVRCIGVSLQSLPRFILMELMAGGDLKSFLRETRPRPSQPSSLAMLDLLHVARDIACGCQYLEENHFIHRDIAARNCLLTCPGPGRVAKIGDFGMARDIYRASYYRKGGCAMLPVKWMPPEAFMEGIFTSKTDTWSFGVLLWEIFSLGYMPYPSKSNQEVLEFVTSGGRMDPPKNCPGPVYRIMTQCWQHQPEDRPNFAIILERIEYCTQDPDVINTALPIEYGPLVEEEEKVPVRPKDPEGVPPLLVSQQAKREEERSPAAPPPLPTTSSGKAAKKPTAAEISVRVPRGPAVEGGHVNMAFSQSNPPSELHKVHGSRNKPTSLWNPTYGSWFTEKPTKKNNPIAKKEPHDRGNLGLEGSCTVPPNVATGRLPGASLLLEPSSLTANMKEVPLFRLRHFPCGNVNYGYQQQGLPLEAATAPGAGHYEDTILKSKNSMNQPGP
# ERK4 = ERK4 (Homo sapiens, UniProt P31152); experiment: KINOMEscan; type: binding; settings: 1 μM
# ABL1-nonphosphorylated = target: T4, ABL1-nonphosphorylated (Homo sapiens, UniProt P00519); experiment: KINOMEscan; type: binding; settings: 1 μM
# T4 construct: purchased Eurofins DiscoverX Corporation
# MEK5 = target: T5, MEK5 (Homo sapiens, UniProt Q13163); experiment: KINOMEscan; type: binding; settings: 1 μM
# T5 construct: purchased Eurofins DiscoverX Corporation
# TAOK2 = target: T6, TAOK2 (Homo sapiens, UniProt Q9UL54); experiment: KINOMEscan; type: binding; settings: 1 μM
# T6 construct: purchased Eurofins DiscoverX Corporation
# [2] = target: T7, EGFR WT, cytoplasmic domain (669–1210) (Homo sapiens, UniProt P00533); experiment: Time-dependent kinase inhibition assay (Sox-based substrate); type: biochemical; settings: enzyme 2.0 nM, 1 mM ATP
# T7 construct: EGFR WT, cytoplasmic domain (669–1210), GST-tagged, Carna; purchased Carna 08-115
# T7 sequence (P00533 669-1210): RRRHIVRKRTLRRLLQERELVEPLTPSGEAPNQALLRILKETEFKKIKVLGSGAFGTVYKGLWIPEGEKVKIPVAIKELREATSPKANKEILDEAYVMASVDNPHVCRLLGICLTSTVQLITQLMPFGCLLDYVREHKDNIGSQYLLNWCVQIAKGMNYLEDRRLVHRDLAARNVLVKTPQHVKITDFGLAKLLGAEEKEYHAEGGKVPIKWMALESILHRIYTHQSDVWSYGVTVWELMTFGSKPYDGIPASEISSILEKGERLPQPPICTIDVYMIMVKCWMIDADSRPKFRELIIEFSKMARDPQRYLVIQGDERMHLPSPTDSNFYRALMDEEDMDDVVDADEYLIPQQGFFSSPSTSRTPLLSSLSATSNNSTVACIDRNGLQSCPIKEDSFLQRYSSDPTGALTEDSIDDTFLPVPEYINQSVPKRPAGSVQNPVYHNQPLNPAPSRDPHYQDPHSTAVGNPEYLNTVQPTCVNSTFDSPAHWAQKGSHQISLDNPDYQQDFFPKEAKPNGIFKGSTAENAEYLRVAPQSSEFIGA
# Description: (§1) Biochemical assays were performed with commercially available EGFR WT, cytoplasmic domain (669–1210), GST-tagged, Carna (Cat#/Lot#: 08-115/21CBS-0127H), EGFR [L858R], cytoplasmic domain (668-end), GST-tagged, SignalChem (Cat#/Lot#: E10-122BG/D2411-4), EGFR [T790M/L858R] cytoplasmic domain (669–1210), GST-tagged, Carna (Cat#/Lot#: 08-510/12CBS-0765M). […] BSA was not included in this experiment to prevent interference with irreversible inhibitor characterization via off-target binding. All reactions were run for 240 min at 30 °C. Time-dependent fluorescence from the Sox-based substrate was monitored in PerkinElmer ProxiPlate-384 Plus, white shallow well microplates (Cat. #6008280) Biotek Synergy Neo 2 microplate reader with excitation (360 nm) and emission (485 nm) wavelengths. 4 was dosed between 0 and 10 µM in 24-point curves with 1.5-fold dilutions. Fluorescence, determined with identical reactions but lacking purified enzyme or crude cell lysate was subtracted from the total fluorescence signal for each time point, with both determined in duplicate, to obtain corrected relative fluorescence units (RFU). Corrected RFU values then were plotted vs. time and the reaction velocity for the first ~40 min (initial reaction rates) was determined from the slope using GraphPad Prism (La Jolla, CA) with units of RFU/min.
# [3] = target: T8, EGFR [T790M/L858R] cytoplasmic domain (669–1210) (Homo sapiens, UniProt P00533, L858R/T790M); experiment: as above; type: biochemical; settings: LRTM, enzyme 2.0 nM, 1 mM ATP
# T8 construct: EGFR [T790M/L858R] cytoplasmic domain (669–1210), GST-tagged, Carna; purchased Carna 08-510
# T8 sequence (P00533 669-1210 T790M/L858R): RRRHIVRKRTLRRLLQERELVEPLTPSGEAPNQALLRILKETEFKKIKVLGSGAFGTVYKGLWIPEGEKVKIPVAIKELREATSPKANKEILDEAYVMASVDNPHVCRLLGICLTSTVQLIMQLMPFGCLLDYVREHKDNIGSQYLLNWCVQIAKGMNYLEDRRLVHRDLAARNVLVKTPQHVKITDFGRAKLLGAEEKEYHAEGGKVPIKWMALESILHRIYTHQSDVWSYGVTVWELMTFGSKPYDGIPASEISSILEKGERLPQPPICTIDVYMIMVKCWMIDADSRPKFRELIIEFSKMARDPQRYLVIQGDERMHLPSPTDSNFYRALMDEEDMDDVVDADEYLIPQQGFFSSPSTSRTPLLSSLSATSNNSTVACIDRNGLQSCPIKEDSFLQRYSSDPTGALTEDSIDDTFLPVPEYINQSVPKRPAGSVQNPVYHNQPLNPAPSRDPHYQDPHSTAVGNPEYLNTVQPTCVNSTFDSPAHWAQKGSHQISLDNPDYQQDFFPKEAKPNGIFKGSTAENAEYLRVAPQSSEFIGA
# Description: as §1
# [4] = target: T9, EGFR [L858R], cytoplasmic domain (668-end) (Homo sapiens, UniProt P00533, L858R); experiment: as above; type: biochemical; settings: LR, enzyme 1.0 nM, 1 mM ATP
# T9 construct: EGFR [L858R], cytoplasmic domain (668-end), GST-tagged, SignalChem; purchased SignalChem E10-122BG
# T9 sequence (P00533 669-1210 L858R limits assumed): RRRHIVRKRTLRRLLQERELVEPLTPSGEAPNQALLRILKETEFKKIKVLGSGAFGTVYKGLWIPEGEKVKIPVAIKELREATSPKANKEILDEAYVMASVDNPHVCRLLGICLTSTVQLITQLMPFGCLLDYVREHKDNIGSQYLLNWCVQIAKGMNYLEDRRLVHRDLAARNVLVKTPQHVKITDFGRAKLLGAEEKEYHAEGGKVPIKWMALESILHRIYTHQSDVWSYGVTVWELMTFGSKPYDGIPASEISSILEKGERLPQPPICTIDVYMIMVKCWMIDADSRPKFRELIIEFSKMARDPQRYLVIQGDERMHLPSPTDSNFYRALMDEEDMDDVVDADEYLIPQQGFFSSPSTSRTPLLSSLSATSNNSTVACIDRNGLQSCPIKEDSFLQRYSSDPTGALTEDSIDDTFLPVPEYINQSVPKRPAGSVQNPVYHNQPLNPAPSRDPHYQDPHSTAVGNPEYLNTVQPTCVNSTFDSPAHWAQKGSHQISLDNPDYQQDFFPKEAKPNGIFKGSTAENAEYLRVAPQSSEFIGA
# Description: as §1
# ZAP70 = ZAP70 (Homo sapiens, UniProt P43403); experiment: KINOMEscan; type: binding; settings: 1 μM
# [5] = target: RSK3(Kin.Dom.1-N-terminal) (Homo sapiens, UniProt Q15349); experiment: KINOMEscan; type: binding; settings: 1 μM
# Sequence of RSK3(Kin.Dom.1-N-terminal) (Q15349 59-318 limits assumed): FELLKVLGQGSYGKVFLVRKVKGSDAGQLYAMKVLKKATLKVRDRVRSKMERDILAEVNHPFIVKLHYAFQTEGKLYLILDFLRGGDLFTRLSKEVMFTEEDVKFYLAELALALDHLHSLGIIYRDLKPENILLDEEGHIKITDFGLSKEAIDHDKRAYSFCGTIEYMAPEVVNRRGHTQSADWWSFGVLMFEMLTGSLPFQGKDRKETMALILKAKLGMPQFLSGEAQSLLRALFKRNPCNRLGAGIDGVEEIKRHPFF
# GAK = target: T10, GAK (Homo sapiens, UniProt O14976); experiment: KINOMEscan; type: binding; settings: 1 μM
# T10 construct: purchased Eurofins DiscoverX Corporation
# [6] = target: T11, JAK1(JH2domain-pseudokinase) (Homo sapiens, UniProt P23458); experiment: KINOMEscan; type: binding; settings: 1 μM
# T11 construct: JAK1(JH2domain-pseudokinase); purchased Eurofins DiscoverX (KINOMEscan)
# T11 sequence (P23458 583-855 limits assumed): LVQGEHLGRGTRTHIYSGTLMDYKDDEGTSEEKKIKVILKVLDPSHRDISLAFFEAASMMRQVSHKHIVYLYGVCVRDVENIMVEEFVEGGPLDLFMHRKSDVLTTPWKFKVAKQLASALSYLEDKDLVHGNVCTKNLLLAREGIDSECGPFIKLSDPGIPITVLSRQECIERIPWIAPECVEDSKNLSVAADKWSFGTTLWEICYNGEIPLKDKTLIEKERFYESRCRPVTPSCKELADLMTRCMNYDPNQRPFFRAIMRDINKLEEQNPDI
# FGFR1 = FGFR1 (Homo sapiens, UniProt P11362); experiment: KINOMEscan; type: binding; settings: 1 μM
# FLT3-autoinhibited = target: T12, FLT3-autoinhibited (Homo sapiens, UniProt P36888); experiment: KINOMEscan; type: binding; settings: 1 μM
# T12 construct: purchased Eurofins DiscoverX Corporation
# MARK2 = target: T13, MARK2 (Homo sapiens, UniProt Q7KZI7); experiment: KINOMEscan; type: binding; settings: 1 μM
# T13 construct: purchased Eurofins DiscoverX Corporation
# [7] = target: RPS6KA5(Kin.Dom.1-N-terminal) (Homo sapiens, UniProt O75582); experiment: KINOMEscan; type: binding; settings: 1 μM
# Sequence of RPS6KA5(Kin.Dom.1-N-terminal) (O75582 49-318 limits assumed): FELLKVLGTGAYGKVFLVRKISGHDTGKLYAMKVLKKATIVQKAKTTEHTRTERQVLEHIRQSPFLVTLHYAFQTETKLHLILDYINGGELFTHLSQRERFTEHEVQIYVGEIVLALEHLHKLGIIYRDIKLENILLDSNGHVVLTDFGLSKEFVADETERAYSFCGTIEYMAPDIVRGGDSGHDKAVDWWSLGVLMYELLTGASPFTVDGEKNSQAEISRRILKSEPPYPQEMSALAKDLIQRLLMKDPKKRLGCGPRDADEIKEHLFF
# WNK1 = WNK1 (Homo sapiens, UniProt Q9H4A3); experiment: KINOMEscan; type: binding; settings: 1 μM
# FLT3(D835H) = FLT3(D835H) (Homo sapiens, UniProt P36888, D835H); experiment: KINOMEscan; type: binding; settings: 1 μM
# [8] = target: RSK1(Kin.Dom.1-N-terminal) (Homo sapiens, UniProt Q15418); experiment: KINOMEscan; type: binding; settings: 1 μM
# [9] = target: T14, ABL1(E255K)-phosphorylated (Homo sapiens, UniProt P00519, E255K); experiment: KINOMEscan; type: binding; settings: 1 μM
# T14 construct: purchased Eurofins DiscoverX Corporation
# YES = YES (Homo sapiens, UniProt P07947); experiment: KINOMEscan; type: binding; settings: 1 μM
# PIP5K1C = PIP5K1C (Homo sapiens, UniProt O60331); experiment: KINOMEscan; type: binding; settings: 1 μM
# ALK = ALK (Homo sapiens, UniProt Q9UM73); experiment: KINOMEscan; type: binding; settings: 1 μM
# Sequence of ALK (Q9UM73 19-1620): as the sequence (Q9UM73 19-1620 L1196M) above, with M1178L counted along it
# EPHA4 = EPHA4 (Homo sapiens, UniProt P54764); experiment: KINOMEscan; type: binding; settings: 1 μM
# Sequence of EPHA4 (P54764 20-986): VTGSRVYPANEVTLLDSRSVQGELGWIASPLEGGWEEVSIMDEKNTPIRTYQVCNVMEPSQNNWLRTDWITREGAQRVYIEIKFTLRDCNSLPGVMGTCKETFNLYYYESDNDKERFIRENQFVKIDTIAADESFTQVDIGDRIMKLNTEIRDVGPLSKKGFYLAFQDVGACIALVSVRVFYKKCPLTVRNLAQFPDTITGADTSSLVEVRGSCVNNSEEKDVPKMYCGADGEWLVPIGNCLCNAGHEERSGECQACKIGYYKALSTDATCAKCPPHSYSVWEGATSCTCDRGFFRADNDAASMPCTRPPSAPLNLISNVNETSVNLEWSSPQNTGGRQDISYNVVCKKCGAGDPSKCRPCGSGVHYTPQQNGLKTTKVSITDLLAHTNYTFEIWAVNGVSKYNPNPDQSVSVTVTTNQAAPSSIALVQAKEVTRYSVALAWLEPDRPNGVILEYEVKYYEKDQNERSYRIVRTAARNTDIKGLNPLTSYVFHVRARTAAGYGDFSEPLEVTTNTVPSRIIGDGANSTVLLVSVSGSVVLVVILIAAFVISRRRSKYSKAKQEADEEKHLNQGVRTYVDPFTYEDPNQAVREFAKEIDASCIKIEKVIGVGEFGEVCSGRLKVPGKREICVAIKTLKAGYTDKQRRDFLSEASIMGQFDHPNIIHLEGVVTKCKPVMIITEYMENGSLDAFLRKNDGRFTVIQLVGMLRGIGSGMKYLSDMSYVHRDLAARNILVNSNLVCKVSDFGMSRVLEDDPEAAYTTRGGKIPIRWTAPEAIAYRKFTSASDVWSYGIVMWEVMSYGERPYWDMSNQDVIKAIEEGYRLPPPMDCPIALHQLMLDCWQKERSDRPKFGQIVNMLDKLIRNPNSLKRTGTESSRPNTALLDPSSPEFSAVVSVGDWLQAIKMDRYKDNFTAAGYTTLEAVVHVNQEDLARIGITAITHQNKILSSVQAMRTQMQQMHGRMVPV
smiles,measurement,setting,value
C=CC(=O)Nc1ccc(OC)c(Nc2cc(-c3[nH]c(CC)nc3-c3cccc(NC(=O)c4cccc5c4NC(=O)c4ccccc4N5)c3)ccn2)c1 [Compound 4],POC,LIMK1,79% of control
same,POC,GRK4,100% of control
same,POC,[1],37% of control
same,POC,EPHB1,92% of control
same,POC,FGFR4,100% of control
same,POC,ALK(L1196M),89% of control
same,POC,ERK4,100% of control
same,POC,ABL1-nonphosphorylated,100% of control
same,POC,MEK5,41% of control
same,POC,TAOK2,100% of control
same,Ki,[2],1200 ± 40 nM
same,kinact,[2],0.003 s⁻¹
same,kinact/KI,[2],2500 ± 30 M⁻¹ s⁻¹
same,Ki,[3],1600 ± 100 nM
same,kinact,[3],0.00167 s⁻¹
same,kinact/KI,[3],1070 ± 40 M⁻¹ s⁻¹
same,Ki,[4],610 ± 30 nM
same,kinact,[4],0.00867 s⁻¹
same,kinact/KI,[4],14100 ± 300 M⁻¹ s⁻¹
same,POC,ZAP70,97% of control
same,POC,[5],97% of control
same,POC,GAK,16% of control
same,POC,[6],83% of control
same,POC,FGFR1,86% of control
same,POC,FLT3-autoinhibited,100% of control
same,POC,MARK2,85% of control
same,POC,[7],83% of control
same,POC,WNK1,100% of control
same,POC,FLT3(D835H),92% of control
same,POC,[8],4.7% of control
same,POC,[9],65% of control
same,POC,YES,20% of control
same,POC,PIP5K1C,78% of control
same,POC,ALK,100% of control
same,POC,EPHA4,95% of control
